# Like-named read-outs stand apart in the source and are kept apart here.
# What was measured:
# [1] = NBI-98854 multiple-dose cohort: plasma (+)α-HTBZ on day 8; type: in vivo, human; conditions: for half-life: read-out: apparent ti (half-life) of plasma concentration decline (converted)
# Experimental: (§1) Plasma concentrations of (+)α-HTBZ, (+)β-HTBZ, and compounds as disclosed herein may be measured by methods as described in Derangula et al, Biomedical Chromatography 2013 27(6): 792-801, Mehvar et al, […] 1987 15(2): 250-55 and generally by tandem mass spectroscopy.
# NBI-98854 was administered orally once daily at a dose of 50 mg or 100 mg for 8 days to patients in a multiple-dose cohort (n=13 for 50 mg dosage group; n=4 for 100 mg dosage group). Individual subject plasma concentration data for (+)α-HTBZ was collected at scheduled times post-dose (0 hr, 2 hr, 4 hr, 6 hr, 8 hr, 12 hr, 16 hr, 24 hr, 48 hr, 96 hr, and 120 hr) on day 8 and presented as mean plasma concentration data (linear scale) (see, FIG. 1). On Day 8, median time to Tmax for (+)α-HTBZ was approximately 4.0 hours for both doses.
# [2] = tested on: TD subjects; experiment: Phase 2 clinical study of NBI-98854: exposure-AIMS (video-rated) analysis; type: in vivo, human; conditions: for Mean AIMS reduction - % (week 6 vs baseline): regardless of NBI-98854 dose
# Text: Methods for determining the effectiveness of a therapeutic for treating a hyperkinetic disorder are routinely practiced in the art by a person skilled in the medical and clinical arts. By way of example, a subject with a hyperkinetic disorder may be diagnosed, monitored, and evaluated by the Abnormal Involuntary Movement Scale (AIMS). The AIMS is a structured neurological examination that was developed in 1976 and has been used extensively in movement disorder assessments. It consists of seven distinct ratings of regional involuntary body movements that are scored on a zero to four scale with zero being rated as none and four being rated as severe.
# (§2) Observed exposure and Abnormal Involuntary Movement Scale (AIMS) derived from video ratings from a Phase 2 clinical study of (S)-2-amino-3-methyl-butyric acid (2R,3R,11bR)-3-isobutyl-9,10-dimethoxy-1,3,4,6,7,11b-hexahydro-2H-pyrido[2,1-a]isoquinolin-2-yl ester were employed for development of the exposure-response relationship. A total of […] were randomized to placebo (N=41) and (S)-2-amino-3-methyl-butyric acid (2R,3R,11bR)-3-isobutyl-9,10-dimethoxy-1,3,4,6,7,11b-hexahydro-2H-pyrido[2,1-a]isoquinolin-2-yl ester (either 25 mg, 50 mg or 75 mg, N=45). Thirty-eight patients receiving (S)-2-amino-3-methyl-butyric acid (2R,3R,11bR)-3-isobutyl-9,10-dimethoxy-1,3,4,6,7,11b-hexahydro-2H-pyrido[2,1-a]isoquinolin-2-yl ester had PK data available for the metabolite [+]α-dihydrotetrabenazine. […] AIMS derived from video rating was available at baseline and week 6 in each patient. Percent change from baseline at week 6 served as the response metric. [+]α-Dihydrotetrabenazine concentration at week 6 sampled at about the Tmax was available in each patient and this Cmax steady state (ss) was used as the exposure measure.
# (§3) The patients who had quantifiable concentrations of [+]α-dihydrotetrabenazine were divided into quartiles based upon the week 6 Cmax ss. The mean Cmax ss and mean AIMS reduction from baseline were calculated for each quartile.
# [3] = Phase 2 clinical study: week 6 plasma concentration (Cmax ss) of [+]α-HTBZ; type: in vivo; conditions: human, NBI-98854 25, 50 or 75 mg, TD patients
# Text: as §1, §2, §3
# [4] = cited from earlier work
# [5] = tested on: TD subjects; experiment: Tolerability of repeated doses in TD subjects; type: in vivo, human; conditions: repeated doses from 12.5 mg to 100 mg per day
# Experimental: Efficacy is related to the concentrations of the active metabolite [+]α-dihydrotetrabenazine. […] Exposures above 60 ng/mL in plasma afford little incremental benefit but increase the risk of adverse events reflecting extension of VMAT2 pharmacology. Exposures below 15 ng/mL are suboptimal across the general TD population.
# [6] = tested on: patients exposed to drug; conditions: patients exposed to metoclopramide (Rao et al 2010); cited from earlier work
# [7] = active metabolite after NBI-98854, TD population
compound,measurement,setting,value
"COc1cc2c(cc1OC)[C@H]1C[C@@H](O)[C@H](CC(C)C)CN1CC2 [(+)α-HTBZ, (2R, 3R, 11bR)-3-isobutyl-9,10-dimethoxy-1,3,4,6,7,11b-hexahydro-2H-pyrido[2,1-a]isoquinolin-2-ol]",Plasma concentration maintained above threshold,"[1]; NBI-98854 50 mg once daily, over a period of about 8 to about 24 hours",> 15 ng/mL
same,half-life,"[1]; human, plasma, po, NBI-98854 50 mg orally once daily",~21 h
same,half-life,"[1]; human, plasma, po, NBI-98854 100 mg orally once daily",~19 h
same,Tmax,"[1]; human, plasma, po, NBI-98854 orally once daily, both doses (50 mg and 100 mg), read-out: median time to Tmax",~4 h
same,Appropriate target concentration in plasma (exposure-response analysis),[2]; [7],30 ng/mL
same,Plasma exposures affording little incremental benefit but increased risk of adverse events,[2]; [7],above 60 ng/mL
same,Plasma exposures that are suboptimal across the general TD population,[2]; [7],below 15 ng/mL
same,Cmax,[3]; 1st quartile by week 6 Cmax ss,~15 ng/mL
same,Cmax,[3]; 2nd quartile by week 6 Cmax ss,~29 ng/mL
same,Cmax,[3]; 3rd quartile by week 6 Cmax ss,42 ng/mL
same,Cmax,[3]; 4th quartile by week 6 Cmax ss,93 ng/mL
"COc1cc2c(cc1OC)C1CC(O)C(CC(C)C)CN1CC2 (centres unmarked) [HTBZ, 3-isobutyl-9,10-dimethoxy-1,3,4,6,7,11b-hexahydro-2H-pyrido[2,1-a]isoquinolin-2-ol]",half-life,[4]; HTBZ formed from tetrabenazine in humans,short
"COc1cc2c(cc1OC)[C@H]1C[C@@H](OC(=O)[C@@H](N)C(C)C)[C@H](CC(C)C)CN1CC2 [NBI-98854, (S)-2-amino-3-methyl-butyric acid (2R,3R,11bR)-3-isobutyl-9,10-dimethoxy-1,3,4,6,7,11b-hexahydro-2H-pyrido[2,1-a]isoquinolin-2-yl ester]",Tolerability,[5],generally well tolerated
same,Mean AIMS reduction - % (week 6 vs baseline),[2]; 3rd quartile of [+]α-HTBZ Cmax ss,65%
same,Mean AIMS reduction - % (week 6 vs baseline),[2]; 4th quartile of [+]α-HTBZ Cmax ss,52%
CCN(CC)CCNC(=O)c1cc(Cl)c(N)cc1OC [metoclopramide],Occurrence of drug-induced TD in patients exposed to drug,[6],< 1%
"COc1cc2c(cc1OC)C1CC(=O)C(CC(C)C)CN1CC2 (centres unmarked) [tetrabenazine, 3-isobutyl-9,10-dimethoxy-1,3,4,6,7,11b-hexahydro-2H-pyrido[2,1-a]isoquinolin-2-one]",Systemic exposure to parent drug,"[4]; in humans, rapidly metabolized to HTBZ",virtually negligible

# From patent US20210196702A1, “TREATMENT OF HYPERKINETIC MOVEMENT DISORDERS” (Neurocrine Biosciences, Inc., priority 2014, published 2021)
